# Like-named read-outs stand apart in the source and are kept apart here.
# Tests used:
# [1] = cited from earlier work; for loqP: Table 3B
# [2] = test system: Escherichia coli, Saccharomyces cerevisae, Pseudomonas putida and Rhodobacter sphaeroides; assay: Toxicity of terpenes on unmodified organisms; conditions: all four organisms
# [3] = cited from earlier work
# [4] = test system: adapted E. coli strains (Isolate A to C, Mut T6 A); type: cell-based, Escherichia coli; conditions: Isobutanol 65 mM, Prenol 40 mM, Butanol 7.5 g/L, Vanillin 1 g/L; Geraniol concentration not given
# Procedure: To investigate the mode of action of the tolerance trait, chemicals with similar properties were tested.
# To assess the limitations of the tolerance mechanism, tolerance against three additional chemicals was tested.
# (§1) On the next day 25 mL of medium in 250 mL baffled flasks with Teflon® liner screw cabs were inoculated to an OD of 0.2 and incubated at 200 rpm. The terpenoid stress was added to the specified concentration. Before the cell-culture reached stationary phase, part of the culture was transferred to fresh medium in a fresh flask with the terpenoid. The mean culture growth rate was determined by comparing the initial OD and the culture OD before passaging.
# (§2) Growth rates were determined by transforming the OD-values of each experiment with the natural logarithm. In the linear regime of growth a line was fit to the data and the slope was determined, which is equal to the growth rate. Growth rates were determined for each flask individually and the growth rate of each condition is given as the mean and standard deviation of three biological replicates.
# E. coli MG1655 wild-type [5] = assay: Toxicity assay: growth rate of wild-type E. coli in M9 medium with the chemical in sealed baffled flasks; type: cell-based, Escherichia coli
# Procedure: The tolerance against Isoprenol was confirmed with the established toxicity assay of growth in M9 medium with Isoprenol in baffled sealed 250 mL flasks. To investigate the mode of action of the tolerance trait, chemicals with similar properties were tested.
# as §1, §2
# A linear interpolation of the two data-points adjacent to the half-maximal growth rate (MIC50) was used to estimate the compound concentration of half-maximal growth rate. If the corresponding standard-deviations of the growth rates were available the standard error of the MIC50 was computed by error propagation.
# [6] = test system: engineered E. coli strains (ΔyghB, ΔmarC, Δrob, rob H48fs); type: cell-based, Escherichia coli
# Excerpt: We began the investigation of the mutations discovered in the final phenotype by testing the knock-out strains of the most promising gene-targets from the readily available Keio collection. The Keio collection is implemented in the BW25113 background which we subsequently used as reference for tolerance testing when using strains derived from the Keio collection. Compared to MG1655 the BW25113 strain is auxotroph for arabinose and rhamnose. Since glucose is the sole carbon source in our growth-assays this should not impact the physiology of tolerance.
# Knock-out strains were constructed by amplification of resistance cassette with 25 bp overlap from corresponding Keio strains (Primers 3+4, 5+6 and 7+8). The PCR products carrying a homologous 25 bp sequence and a kanamycin resistance were used to transform E. coli MG1655 using standard procedures (Baba et al., 2006). For over-expression plasmids target genes were amplified with a 25 bp homology to the pAH030 overexpression plasmid. The Plasmid was linearized using the Spel restriction site and the PCR-product containing the gene of interested was inserted using Gibson assembly (Gibson et al., 2009).
# Knock out strains were prepared using DNA-fragments isolated from the corresponding Keio collection strains. Recombination was carried out using a standard RED/ET kit (Genebridges Red/ET Kit, 2019).
# as §2
# [7] = test system: Escherichia coli, Saccharomyces cerevisae, Pseudomonas putida and Rhodobacter sphaeroides
# E. coli MG1655 wild-type [8] = conditions: cited from earlier work
compound,measurement,setting,value
"C=C(C)C1CC=C(C)C(=O)C1 (single isomer, unassigned; (-)) [(-)-Carvone]",loqP,[1],2.71
CC(=O)CCc1ccc(O)cc1 [4-(4-Hydroxyphenyl)-2-butanone],loqP,[1],1.5
CC(C)=CCCC(C)=CC=O [Citral],loqP,[1],2.9
same,toxicity on unmodified organisms,[2],toxic effects
CCOC(=O)CC [Ethyl Propionate],loqP,[1],1.21
CCCC(=O)OCC [Ethyl butanoate],loqP,[1],1.77
CC(C)=CCCC(C)=CCCC(C)=CCO [Farnesol],Solubility,"[3]; solubility in water, Table 3B",50 µg/mL
same,loqP,[1],4.16
CC(C)=CCC/C(C)=C/CO [Geraniol],Solubility,"[3]; solubility in water, Table 3B",680 µg/mL
same,tolerance of adapted strains compared to wild-type,[4],highly elevated susceptibility
same,toxicity on unmodified organisms,[2],toxic effects
CC(C)CO [Isobutanol],tolerance of adapted strains compared to wild-type,[4],All strains exhibit an increased tolerance
same,loqP,[1],0.8
same,EC50,"E. coli MG1655 wild-type [5]; Escherichia coli, MG1655, wild-type strain, read-out: concentration where growth is 50% inhibited (EC50), half maximal inhibitory concentration",65 mM
"C=C(C)CCO [Isoprenol, 3-methyl-3-buten-1-ol]",Solubility,[3]; Table A,90000 µg/mL
same,Solubility,"[3]; solubility in water, Table 3B",90000 µg/mL
same,loqP,[1],0.89
same,logP,[1]; Table A,0.89
same,growth of wild-type E. coli cells,E. coli MG1655 wild-type [5]; 60 to 80 mM Isoprenol concentration regime,not able to grow
same,toxicity on unmodified organisms,[2],toxic effects
same,decrease of fitness,"[6]; ΔyghB strain of the Keio collection (BW25113), Isoprenol stress",about 30%
C=C(C)[C@H]1CC=C(C)CC1 [Limonene],loqP,[1],4.571
C=CC(C)(O)CCC=C(C)C (centres unmarked) [Linalool],Solubility,"[3]; solubility in water, Table 3B",1500 µg/mL
CC1CCC(C(C)C)C(O)C1 (centres unmarked) [Menthol],toxicity on unmodified organisms,[7],toxic effects
same,loqP,[1],3.2
CC(C)=CCO [Prenol],tolerance of adapted strains compared to wild-type,[4],only strain isolate A exhibited an increased tolerance
same,loqP,[1],0.91
same,EC50,"E. coli MG1655 wild-type [5]; wild-type strain, read-out: concentration where growth is 50% inhibited (EC50), half maximal inhibitory concentration",40 mM
COc1cc(C(=O)O)ccc1O [Vanillic Acid],loqP,[1],1.43
COc1cc(C=O)ccc1O [Vanillin],Solubility,"[3]; solubility in water, Table 3B",10000 µg/mL
same,tolerance of adapted strains compared to wild-type,[4],significantly increased growth rate
same,Wild-type growth rate,E. coli MG1655 wild-type [5]; 1.5 g/L Vanillin (FIG. 10B),0.23 h⁻¹
same,EC50,"E. coli MG1655 wild-type [5]; Escherichia coli, MG1655, wild-type E. coli, own experimental set-up, read-out: experimental EC50 / half-maximal growth repression",1000 to 1500 µg/mL
same,growth rate reduced to fraction of wild-type growth rate (no complete growth inhibition),"E. coli MG1655 wild-type [5]; wild-type E. coli MG1655, concentration regime tested (FIG. 10A)",⅓
same,effect of marC knock-out under Vanillin stress,"[6]; ΔmarC, 1.5 g/L Vanillin",no significant positive effect
same,increase of tolerance compared to wild-type,"[6]; Δrob complemented with rob H48fs, 1.5 g/L Vanillin",36%
same,increased growth rate,"[6]; Δrob rob H48fs plus marC knock-out, 1.5 g/L Vanillin",28%
same,increase of growth rate,"[6]; Δrob, 1.5 g/L Vanillin",8%
same,additional faster growth,"[6]; ΔyghB complemented with yghB expression, versus ΔyghB, 1.5 g/L Vanillin",3%
same,increase of growth rate,"[6]; ΔyghB, 1.5 g/L Vanillin",18%
Butanol,literature value for half-maximal concentration,E. coli MG1655 wild-type [8],7.5 g/L
same,tolerance of adapted strains compared to wild-type,[4],increased tolerance
same,Wild-type growth rate,E. coli MG1655 wild-type [5]; 5 g/L Butanol (FIG. 9B),0.25 h⁻¹
same,experimental EC50 / half-maximal growth repression,"E. coli MG1655 wild-type [5]; wild-type E. coli, own experimental set-up",~5000 µg/mL
same,increased growth rate,"[6]; double knock out rob and marC with rob H48fs expression, 5 g/L Butanol",41%
same,increase of tolerance (growth rate vs wild-type),"[6]; ΔmarC, 5 g/L Butanol",32%
same,increase of tolerance (growth rate vs wild-type),"[6]; Δrob with leaky rob H48frameshift expression, 5 g/L Butanol",34%
same,increase of tolerance (growth rate vs wild-type),"[6]; Δrob, 5 g/L Butanol",about 25%
same,increase of relative fitness,"[6]; ΔyghB complemented with yghB plasmid, 0 μM IPTG, 5 g/L Butanol",about 11%
same,effect of yghB knock-out on tolerance,"[6]; ΔyghB, 5 g/L Butanol",decreases tolerance
